This note sets out measurements from patent publication US20260078120A1, “SUBSTITUTED PYRIDOPYRIMIDINONES” (MIRATI THERAPEUTICS, INC., priority 2022, published 2026).

Format in all cases: cell-based
Experiment [1] relates to T47D (PI3Kα H1047R mutant) cells. As to the kind of experiment: CellTiter-Glo 2.0 luminescent cell viability assay, 72 hours, T47D cells. Conditions: Homo sapiens, T47D, 72 h, T47D (PI3Kα H1047R mutant) cells, CellTiter-Glo, approximately 72 hours; read-out: T47D (H1047R mutant) Viability IC50. The method in brief: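 Viability was measured by CellTiter-Glo 2.0 luminescence after approximately 72 h of compound exposure at 37° C. Plating was 1000 cells per well the day before dosing, with ten 1:4 dilutions from a 10 µM top concentration. Values as percent of vehicle were fitted by variable-slope log(inhibitor) regression to give IC50.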

The test system is the same in experiment [2]. Briefly: Inhibition of pAKT formation, alphaLISA SureFire Ultra AKT 1/2/3 (pS473), T47D cells. As to conditions: Homo sapiens, T47D, T47D (PI3Kα H1047R mutant) cells; inhibition of pAKT (pS473) formation; approximately one hour or 24 hours treatment; read-out: T47D pAKT (H1047R mutant) IC50. The method in brief: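 AKT Ser473 phosphorylation was quantified by alphaLISA SureFire Ultra after roughly 1 h or 24 h compound exposure at 37 °C. Cells were T47D (12,000/well in HBSS), treated with a 10-point 1:4 series starting at 10.4 μM. Percent of control used alpelisib background and DMSO reference, and IC50 came from four-parameter logistic fitting.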
In general terms: Bead proximity is the source of the signal in Alpha formats.

Experiment [3] deals with SKBR3 (PI3Kα wild type) cells. Briefly: CellTiter-Glo 2.0 luminescent cell viability assay, 72 hours, SKBR3 cells. As to conditions: Homo sapiens, SK-BR-3, 72 h, SKBR3 (PI3Kα wild type) cells, CellTiter-Glo, approximately 72 hours; read-out: SKBR3 (WT) Viability IC50. The method in brief: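 Viability measured via CTG luminescence following roughly 72 hours of compound exposure at 37° C. Dosing used a 10 um starting concentration diluted 1:4 over 10 points; percent-of-vehicle data fitted with a variable-slope four-parameter model for IC50.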

pIC50: −log10 of the molar value. Some results are limits rather than exact numbers.

Take `Cc1cc([C@@H](C)Nc2ccccc2C(=O)O)c2nc(NCC3(C)CC3(F)F)c(C#N)c(=O)n2c1` (stereo partly drawn) [Example 10-60, 2-(((1R)-1-(3-cyano-2-(((2,2-difluoro-1-methylcyclopropyl)methyl)amino)-7-methyl-4-oxo-4H-pyrido[1,2-a]pyrimidin-9-yl)ethyl)amino)benzoic acid]: the pIC50 in experiment [1] was 7.01; in experiment [2] it was 8.58; in experiment [3], under 5.00.

In the case of `Cc1cc([C@@H](C)Nc2ccccc2C(=O)O)c2nc(N3CCC(F)(F)C3)c(C#N)c(=O)n2c1` [Example 10-75, (R)-2-((1-(3-cyano-2-(3,3-difluoropyrrolidin-1-yl)-7-methyl-4-oxo-4H-pyrido[1,2-a]pyrimidin-9-yl)ethyl)amino)benzoic acid], the values for the pIC50 in experiment [1], in experiment [2] and in experiment [3] were 6.96, 8.98 and under 5.00, respectively.

With `Cc1cc([C@@H](C)Nc2ccccc2C(=O)O)c2nc(N3CC4CC3C4)c(C#N)c(=O)n2c1` [Example 10-76, (R)-2-((1-(2-(2-azabicyclo[2.1.1]hexan-2-yl)-3-cyano-7-methyl-4-oxo-4H-pyrido[1,2-a]pyrimidin-9-yl)ethyl)amino)benzoic acid], the pIC50 in experiment [1] is 6.96; in experiment [2] it was 8.77; in experiment [3] it was under 5.00.

Turning to `Cc1cc([C@@H](C)Nc2ccccc2C(=O)O)c2nc(N3CCN(c4ccc(C#N)cc4C)CC3)c(C)c(=O)n2c1` [Example 10-77, (R)-2-((1-(2-(4-(4-cyano-2-methylphenyl)piperazin-1-yl)-3,7-dimethyl-4-oxo-4H-pyrido[1,2-a]pyrimidin-9-yl)ethyl)amino)benzoic acid], the pIC50 in experiment [1] is 6.97; in experiment [2], 8.42; in experiment [3], under 5.00.

As for `COC1(C)CCN(c2nc3c([C@@H](C)Nc4ccccc4C(=O)O)cc(C)cn3c(=O)c2C#N)CC1` [Example 10-78, (R)-2-((1-(3-cyano-2-(4-methoxy-4-methylpiperidin-1-yl)-7-methyl-4-oxo-4H-pyrido[1,2-a]pyrimidin-9-yl)ethyl)amino)benzoic acid], the pIC50 in experiment [1] is 7.13; in experiment [2], 8.66; in experiment [3] it was under 5.00.

Consider `Cc1cc([C@@H](C)Nc2ccccc2C(=O)O)c2nc(N3CCCCC3)c(F)c(=O)n2c1` [Example 10-79, (R)-2-((1-(3-fluoro-7-methyl-4-oxo-2-(piperidin-1-yl)-4H-pyrido[1,2-a]pyrimidin-9-yl)ethyl)amino)benzoic acid], for which the pIC50 in experiment [1] is 7.11; in experiment [2], 9.52; in experiment [3], under 5.00.

Consider `Cc1cc([C@@H](C)Nc2ccccc2C(=O)O)c2nc(N(C)CC3CC3)c(C#N)c(=O)n2c1` [Example 10-80, (R)-2-((1-(3-cyano-2-((cyclopropylmethyl)(methyl)amin0)-7-methyl-4-oxo-4H-pyrido[1,2-a]pyrimidin-9-yl)ethyl)amino)benzoic acid], for which the values for the pIC50 in experiment [1], in experiment [2] and in experiment [3] were 7.12, 8.70 and under 5.00, respectively.

For `Cc1cc([C@@H](C)Nc2ccccc2C(=O)O)c2nc(N3CCC4(CC3)C(F)(F)C4(F)F)c(C#N)c(=O)n2c1` [Example 10-81, (R)-2-((1-(3-cyano-7-methyl-4-oxo-2-(1,1,2,2-tetrafluoro-6-azaspiro[2.5]octan-6-yl)-4H-pyrido[1,2-a]pyrimidin-9-yl)ethyl)amino)benzoic acid], the figures for the pIC50 in experiment [1], in experiment [2] and in experiment [3] were 7.11, 8.60 and under 5.00, respectively.

In the case of `Cc1cc([C@@H](C)Nc2ccccc2C(=O)O)c2nc(N3CCN(C(=O)c4ccc(Cl)cc4)CC3)c(C)c(=O)n2c1` [Example 10-82, (R)-2-((1-(2-(4-(4-chlorobenzoyl)piperazin-1-yl)-3,7-dimethyl-4-oxo-4H-pyrido[1,2-a]pyrimidin-9-yl)ethyl)amino)benzoic acid], the pIC50 in experiment [1] is 7.11; in experiment [2] it was 8.59; in experiment [3], 5.10.

With `Cc1cc([C@@H](C)Nc2ccccc2C(=O)O)c2nc(N3CCN(C(=O)C4CCCC4)CC3)c(C)c(=O)n2c1` [Example 10-84, (R)-2-((1-(2-(4-(cyclopentanecarbonyl)piperazin-1-yl)-3,7-dimethyl-4-oxo-4H-pyrido[1,2-a]pyrimidin-9-yl)ethyl)amino)benzoic acid], the pIC50 in experiment [1] was 7.10; in experiment [2] it was 8.53; in experiment [3] it was under 5.00.

With `Cc1cc([C@@H](C)Nc2ccc(Cl)nc2C(=O)O)c2nc(NCC3CC3)c(C)c(=O)n2c1` [Example 10-85, (R)-6-chloro-3-((1-(2-((cyclopropylmethyl)amino)-3,7-dimethyl-4-oxo-4H-pyrido[1,2-a]pyrimidin-9-yl)ethyl)amino)picolinic acid], the results for the pIC50 in experiment [1], in experiment [2] and in experiment [3] were 7.10, 8.70 and under 5.00, respectively.

Consider `Cc1cc([C@@H](C)Nc2ccccc2C(=O)O)c2nc(N3CCN(c4ccc(F)cc4F)CC3)c(C#N)c(=O)n2c1` [Example 10-86, (R)-2-((1-(3-cyano-2-(4-(2,4-difluorophenyl)piperazin-1-yl)-7-methyl-4-oxo-4H-pyrido[1,2-a]pyrimidin-9-yl)ethyl)amino)benzoic acid], for which the pIC50 in experiment [1] is 7.10; in experiment [2], 7.81; in experiment [3] it was under 5.00.

For `Cc1cc([C@@H](C)Nc2ccccc2C(=O)O)c2nc(N3Cc4cc(F)c(F)cc4C3)c(C#N)c(=O)n2c1` [Example 10-87, (R)-2-((1-(3-cyano-2-(5,6-difluoroisoindolin-2-yl)-7-methyl-4-oxo-4H-pyrido[1,2-a]pyrimidin-9-yl)ethyl)amino)benzoic acid], the negative logarithm of the IC50 (pIC50) in experiment [1] is 7.10; in experiment [2], 8.65; in experiment [3], under 5.00.

For the molecule `Cc1cc([C@@H](C)Nc2ccccc2C(=O)O)c2nc(N3CC4CC3C(F)(F)C4)c(C#N)c(=O)n2c1` (stereo partly drawn) [Example 10-88, 2-(((1R)-1-(3-cyano-2-(6,6-difluoro-2-azabicyclo[2.2.1]heptan-2-yl)-7-methyl-4-oxo-4H-pyrido[1,2-a]pyrimidin-9-yl)ethyl)amino)benzoic acid], the pIC50 is 7.10 in experiment [1], 8.42 in experiment [2] and under 5.00 in experiment [3].

`Cc1cc([C@@H](C)Nc2ccccc2C(=O)O)c2nc(N3C4CCCC3CC4)c(C#N)c(=O)n2c1` [Example 10-89, 2-(((1R)-1-(2-(8-azabicyclo[3.2.1]octan-8-yl)-3-cyano-7-methyl-4-oxo-4H-pyrido[1,2-a]pyrimidin-9-yl)ethyl)amino)benzoic acid]: the figures for the negative-log IC50 (pIC50) in experiment [1], in experiment [2] and in experiment [3] were 7.09, 8.09 and under 5.00, respectively.

Take `Cc1cc([C@@H](C)Nc2ccccc2C(=O)O)c2nc(NC3CCC3)c(C#N)c(=O)n2c1` [Example 10-90, (R)-2-((1-(3-cyano-2-(cyclobutylamino)-7-methyl-4-oxo-4H-pyrido[1,2-a]pyrimidin-9-yl)ethyl)amino)benzoic acid]: the results for the pIC50 in experiment [1], in experiment [2] and in experiment [3] were 7.08, 9.22 and under 5.00, respectively.

Take `Cc1cc([C@@H](C)Nc2ccccc2C(=O)O)c2nc(N3CCN(CC(F)F)CC3)c(C)c(=O)n2c1` [Example 10-91, (R)-2-((1-(2-(4-(2,2-difluoroethyl)piperazin-1-yl)-3,7-dimethyl-4-oxo-4H-pyrido[1,2-a]pyrimidin-9-yl)ethyl)amino)benzoic acid]: the pIC50 in experiment [1] is 7.08; in experiment [2], 8.59; in experiment [3], under 5.00.

For `Cc1cc([C@@H](C)Nc2ccccc2C(=O)O)c2nc(N3Cc4ccc(F)cc4C3)c(C#N)c(=O)n2c1` [Example 10-92, (R)-2-((1-(3-cyano-2-(5-fluoroisoindolin-2-yl)-7-methyl-4-oxo-4H-pyrido[1,2-a]pyrimidin-9-yl)ethyl)amino)benzoic acid], the values for the pIC50 in experiment [1], in experiment [2] and in experiment [3] were 7.08, 8.77 and under 5.00, respectively.

With `Cc1cc([C@@H](C)Nc2ccccc2C(=O)O)c2nc(N3CCN(c4ccc(F)cc4F)CC3)c(C)c(=O)n2c1` [Example 10-93, (R)-2-((1-(2-(4-(2,4-difluorophenyl)piperazin-1-yl)-3,7-dimethyl-4-oxo-4H-pyrido[1,2-a]pyrimidin-9-yl)ethyl)amino)benzoic acid], the pIC50 is 7.08 in experiment [1], 8.37 in experiment [2] and under 5.00 in experiment [3].

Regarding `Cc1cc([C@@H](C)Nc2ccccc2C(=O)O)c2nc(N3CCN(c4ccc(C#N)cc4F)CC3)c(C#N)c(=O)n2c1` [Example 10-94, (R)-2-((1-(3-cyano-2-(4-(4-cyano-2-fluorophenyl)piperazin-1-yl)-7-methyl-4-oxo-4H-pyrido[1,2-a]pyrimidin-9-yl)ethyl)amino)benzoic acid], the pIC50 in experiment [1] was 7.08; in experiment [2], 8.69; in experiment [3], under 5.00.

`Cc1cc([C@@H](C)Nc2ccccc2C(=O)O)c2nc(N3CC4CCC3CC4)c(C#N)c(=O)n2c1` [Example 10-97, (R)-2-((1-(2-(2-azabicyclo[2.2.2]octan-2-yl)-3-cyano-7-methyl-4-oxo-4H-pyrido[1,2-a]pyrimidin-9-yl)ethyl)amino)benzoic acid]: the pIC50 was 7.07 in experiment [1], 8.69 in experiment [2] and under 5.00 in experiment [3].

The term pIC50 denotes the negative decadic logarithm of the IC50, by convention in mol/L.
